Measurements reported in patent US9833497B2, “Human originated EGF domain proteins and use of the same” (CHENGDU SOURCEBIO LIMITED-LIABILITY COMPANY, priority 2013, dated 2017).

What was measured:
Assay type in all cases: cell-based
Moraxella catarrhalis = experiment: MIC against Gram-negative bacteria: Moraxella catarrhalis
Procedure, shortened: (§1)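 Bacteria grown in LB at 37° C with shaking to McFarland 0.5, pelleted and resuspended in fresh LB, then seeded at 5×10^5 CFU/mL per well. Purified recombinant human EGF domain proteins were two-fold serially diluted in triplicate and plates shaken at 37° C, 175 rpm. MIC is the lowest protein concentration with no bacterial growth.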

Proteus vulgaris = experiment: MIC against Gram-negative bacteria: Proteus vulgaris
Procedure, shortened: as §1

Citrobacter diversus = experiment: MIC against Gram-negative bacteria: Citrobacter diversus
Procedure, shortened: as §1

Enterobacter cloacae = experiment: MIC against Gram-negative bacteria: Enterobacter cloacae
Procedure, shortened: as §1

Pseudomonas aeruginosa = experiment: MIC against Gram-negative bacteria: Pseudomonas aeruginosa
Procedure, shortened: as §1

Serratia marcescens = experiment: MIC against Gram-negative bacteria: Serratia marcescens
Procedure, shortened: as §1

Klebsiella pneumonia = experiment: MIC against Gram-negative bacteria: Klebsiella pneumonia
Procedure, shortened: as §1

Aeromonas hydrophila = experiment: MIC against Gram-negative bacteria: Aeromonas hydrophila
Procedure, shortened: as §1

E. coli DH5α = experiment: Antibacterial activity: MIC and growth curve against E. coli DH5α in 96-well plate; conditions: minimal inhibitory concentration against E. coli DH5α; 96-well plate, 5×10^5 CFU/mL, 37° C., judged after 8 h
Procedure, shortened: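 Log-phase DH5α (OD600 about 0.5, 37° C, 185 rpm in LB) was pelleted, resuspended in fresh LB and seeded at 5×10^5 CFU/mL with recombinant protein at 50, 25 and 12.5 μg/mL (two-fold series), in triplicate. Plates were shaken at 175 rpm, 37° C, and OD600 was read every 30 min. MIC was the lowest concentration with no growth.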

Proteus mirabilis = experiment: MIC against Gram-negative bacteria: Proteus mirabilis
Procedure, shortened: as §1

E. coli BL21 = experiment: MIC against Gram-negative bacteria: E. coli BL21
Procedure, shortened: as §1

[1] = 10 h cultivation at 37° C., 5×10^5 CFU/mL, two-fold serial dilution
[2] = 96-well plate, 5×10^5 CFU/mL, 37° C., 10 h
[3] = Moraxella catarrhalis, 96-well plate, 5×10^5 CFU/mL, 37° C., 10 h
[4] = Proteus vulgaris, 96-well plate, 5×10^5 CFU/mL, 37° C., 10 h
[5] = Citrobacter diversus, 96-well plate, 5×10^5 CFU/mL, 37° C., 10 h
[6] = Enterobacter cloacae, 96-well plate, 5×10^5 CFU/mL, 37° C., 10 h
[7] = Pseudomonas aeruginosa, 96-well plate, 5×10^5 CFU/mL, 37° C., 10 h
[8] = Serratia marcescens, 96-well plate, 5×10^5 CFU/mL, 37° C., 10 h
[9] = Klebsiella pneumonia, 96-well plate, 5×10^5 CFU/mL, 37° C., 10 h
[10] = Aeromonas hydrophila, 96-well plate, 5×10^5 CFU/mL, 37° C., 10 h
[11] = Proteus mirabilis, 96-well plate, 5×10^5 CFU/mL, 37° C., 10 h
[12] = E. coli BL21, 96-well plate, 5×10^5 CFU/mL, 37° C., 10 h

**Q.** With “PRT1437 (DVNECADGAHPPCHASARCRNTKGGFQCLCADPYELGDDGRTCV; listed as Homo sapiens)” as the substance, how does the “MIC against M. catarrhalis” value (Moraxella catarrhalis; Moraxella catarrhalis, 5×10^5 CFU/mL, 10 h cultivation at 37° C.) read?
**A.** 12.5 µg/mL

**Q.** What about the “MIC against P. vulgaris” value (Proteus vulgaris; Proteus vulgaris, 5×10^5 CFU/mL, 10 h cultivation at 37° C.) of the same substance?
**A.** 12.5 µg/mL

**Q.** And the “MIC against C. diversus” value (Citrobacter diversus; Citrobacter diversus, 5×10^5 CFU/mL, 10 h cultivation at 37° C.)?
**A.** 12.5 µg/mL

**Q.** What about the “MIC against E. cloacae” value (Enterobacter cloacae; Enterobacter cloacae, 5×10^5 CFU/mL, 10 h cultivation at 37° C.) of the same substance?
**A.** 12.5 µg/mL

**Q.** And the “MIC against P. aeruginosa” value (Pseudomonas aeruginosa; Pseudomonas aeruginosa, 5×10^5 CFU/mL, 10 h cultivation at 37° C.)?
**A.** 12.5 µg/mL

**Q.** And the “MIC against S. marcescens” value (Serratia marcescens; Serratia marcescens, 5×10^5 CFU/mL, 10 h cultivation at 37° C.)?
**A.** 50 µg/mL

**Q.** And the “MIC against K. pneumonia” value (Klebsiella pneumonia; Klebsiella pneumonia, 5×10^5 CFU/mL, 10 h cultivation at 37° C.)?
**A.** 12.5 µg/mL

**Q.** What about the “MIC against A. hydrophila” value (Aeromonas hydrophila; Aeromonas hydrophila, 5×10^5 CFU/mL, 10 h cultivation at 37° C.) of the same substance?
**A.** 12.5 µg/mL

**Q.** And the MIC (E. coli DH5α)?
**A.** 12.5 µg/mL

**Q.** And the “MIC against P. mirabilis” value (Proteus mirabilis; Proteus mirabilis, 5×10^5 CFU/mL, 10 h cultivation at 37° C.)?
**A.** 25 µg/mL

**Q.** What about the “MIC against E. coli BL21” value (E. coli BL21; E. coli BL21, 5×10^5 CFU/mL, 10 h cultivation at 37° C.) of the same substance?
**A.** 25 µg/mL

**Q.** Which “MIC M. catarrhalis” value (Moraxella catarrhalis; [1]) does the source give for “PRT1084 (HLVKCAEKEKTFCVNGGECFMVKDLSNPSRYLCKCQPGFTGARCT; listed as Homo sapiens)” here?
**A.** 25 µg/mL

**Q.** What about the “MIC P. vulgaris” value (Proteus vulgaris; [1]) of the same substance?
**A.** 25 µg/mL

**Q.** And the “MIC C. diversus” value (Citrobacter diversus; [1])?
**A.** 12.5 µg/mL

**Q.** And the “MIC E. cloacae” value (Enterobacter cloacae; [1])?
**A.** 50 µg/mL

**Q.** And the “MIC P. aeruginosa” value (Pseudomonas aeruginosa; [1])?
**A.** 50 µg/mL

**Q.** And the “MIC S. marcescens” value (Serratia marcescens; [1])?
**A.** 12.5 µg/mL

**Q.** What about the “MIC K. pneumonia” value (Klebsiella pneumonia; [1]) of the same substance?
**A.** 50 µg/mL

**Q.** What about the “MIC A. hydrophila” value (Aeromonas hydrophila; [1]) of the same substance?
**A.** 12.5 µg/mL

**Q.** What about the MIC (E. coli DH5α) of the same substance?
**A.** 50 µg/mL

**Q.** What about the “MIC P. mirabilis” value (Proteus mirabilis; [1]) of the same substance?
**A.** 12.5 µg/mL

**Q.** What about the “MIC E. coli BL21” value (E. coli BL21; [1]) of the same substance?
**A.** 12.5 µg/mL

**Q.** With “PRT728 (ATNPCKDNNGGCEQVCVLSHRTDNDGLGFRCKCTFGFQLDTDERHCI; listed as Homo sapiens)” as the substance, how does the “MIC M. catarrhalis” value (Moraxella catarrhalis; [2]) read?
**A.** 12.5 µg/mL

**Q.** And the “MIC P. vulgaris” value (Proteus vulgaris; [2])?
**A.** 12.5 µg/mL

**Q.** What about the “MIC C. diversus” value (Citrobacter diversus; [2]) of the same substance?
**A.** 25 µg/mL

**Q.** What about the “MIC E. cloacae” value (Enterobacter cloacae; [2]) of the same substance?
**A.** 25 µg/mL

**Q.** What about the “MIC P. aeruginosa” value (Pseudomonas aeruginosa; [2]) of the same substance?
**A.** 25 µg/mL

**Q.** What about the “MIC S. marcescens” value (Serratia marcescens; [2]) of the same substance?
**A.** 25 µg/mL

**Q.** And the “MIC K. pneumonia” value (Klebsiella pneumonia; [2])?
**A.** 12.5 µg/mL

**Q.** And the “MIC A. hydrophila” value (Aeromonas hydrophila; [2])?
**A.** 12.5 µg/mL

**Q.** And the MIC (E. coli DH5α)?
**A.** 25 µg/mL

**Q.** And the “MIC P. mirabilis” value (Proteus mirabilis; [2])?
**A.** 12.5 µg/mL

**Q.** And the “MIC E. coli BL21” value (E. coli BL21; [2])?
**A.** 25 µg/mL

**Q.** Which MIC (Moraxella catarrhalis; M. catarrhalis, 10 h cultivation at 37° C.) does the source give for “PRT984 (SNASCAAAPCLHGGSCRPAPLAPFFRCACAQGWTGPRCE; listed as Homo sapiens)” here?
**A.** 12.5 µg/mL

**Q.** And the MIC (Proteus vulgaris; P. vulgaris, 10 h cultivation at 37° C.)?
**A.** 25 µg/mL

**Q.** What about the MIC (Citrobacter diversus; C. diversus, 10 h cultivation at 37° C.) of the same substance?
**A.** 12.5 µg/mL

**Q.** What about the MIC (Enterobacter cloacae; E. cloacae, 10 h cultivation at 37° C.) of the same substance?
**A.** 25 µg/mL

**Q.** What about the MIC (Pseudomonas aeruginosa; P. aeruginosa, 10 h cultivation at 37° C.) of the same substance?
**A.** 25 µg/mL

**Q.** What about the MIC (Serratia marcescens; S. marcescens, 10 h cultivation at 37° C.) of the same substance?
**A.** 12.5 µg/mL

**Q.** And the MIC (Klebsiella pneumonia; K. pneumonia, 10 h cultivation at 37° C.)?
**A.** 50 µg/mL

**Q.** And the MIC (Aeromonas hydrophila; A. hydrophila, 10 h cultivation at 37° C.)?
**A.** 12.5 µg/mL

**Q.** And the MIC (E. coli DH5α)?
**A.** 50 µg/mL

**Q.** What about the MIC (Proteus mirabilis; P. mirabilis, 10 h cultivation at 37° C.) of the same substance?
**A.** 50 µg/mL

**Q.** What about the MIC (E. coli BL21; E. coli BL21, 10 h cultivation at 37° C.) of the same substance?
**A.** 12.5 µg/mL

**Q.** What does the source list for “PRT72 (NKLDLPCPRGWWGNPVCGPCHCAVSKGFDPDCN; listed as Homo sapiens)”?
**A.** MIC (μg/mL) M. catarrhalis (Moraxella catarrhalis; [3]): 12.5 µg/mL; MIC (μg/mL) P. vulgaris (Proteus vulgaris; [4]): 25 µg/mL; MIC (μg/mL) C. diversus (Citrobacter diversus; [5]): 12.5 µg/mL; MIC (μg/mL) E. cloacae (Enterobacter cloacae; [6]): 25 µg/mL; MIC (μg/mL) P. aeruginosa (Pseudomonas aeruginosa; [7]): 25 µg/mL; MIC (μg/mL) S. marcescens (Serratia marcescens; [8]): 100 µg/mL; MIC (μg/mL) K. pneumonia (Klebsiella pneumonia; [9]): 12.5 µg/mL; MIC (μg/mL) A. hydrophila (Aeromonas hydrophila; [10]): 12.5 µg/mL; MIC (E. coli DH5α): 12.5 µg/mL; MIC (μg/mL) P. mirabilis (Proteus mirabilis; [11]): 12.5 µg/mL; MIC (μg/mL) E. coli BL21 (E. coli BL21; [12]): 12.5 µg/mL

**Q.** “PRT513 (CECDPYGSLPVPCDPVTGFCTCRPGATGRKCDGCKHWHAREGWECVF; listed as Homo sapiens)” was tested. Which “MIC against M. catarrhalis” value (Moraxella catarrhalis; [2]) did it give?
**A.** 12.5 µg/mL

**Q.** And the “MIC against P. vulgaris” value (Proteus vulgaris; [2])?
**A.** 12.5 µg/mL

**Q.** What about the “MIC against C. diversus” value (Citrobacter diversus; [2]) of the same substance?
**A.** 25 µg/mL

**Q.** And the “MIC against E. cloacae” value (Enterobacter cloacae; [2])?
**A.** 25 µg/mL

**Q.** And the “MIC against P. aeruginosa” value (Pseudomonas aeruginosa; [2])?
**A.** 50 µg/mL

**Q.** What about the “MIC against S. marcescens” value (Serratia marcescens; [2]) of the same substance?
**A.** 12.5 µg/mL

**Q.** And the “MIC against K. pneumonia” value (Klebsiella pneumonia; [2])?
**A.** 12.5 µg/mL

**Q.** And the “MIC against A. hydrophila” value (Aeromonas hydrophila; [2])?
**A.** 50 µg/mL

**Q.** What about the MIC (E. coli DH5α) of the same substance?
**A.** 50 µg/mL

**Q.** And the “MIC against P. mirabilis” value (Proteus mirabilis; [2])?
**A.** 50 µg/mL

**Q.** And the “MIC against E. coli BL21” value (E. coli BL21; [2])?
**A.** 12.5 µg/mL

**Q.** For “PRT1314 (ARNPCTDGHRGGCSEHANCLSTGLNTRRCECHAGYVGDGLQCL; listed as Homo sapiens)”, which “MIC against M. catarrhalis” value (Moraxella catarrhalis; [3]) is on record?
**A.** 12.5 µg/mL

**Q.** And the “MIC against P. vulgaris” value (Proteus vulgaris; [4])?
**A.** 12.5 µg/mL

**Q.** And the “MIC against C. diversus” value (Citrobacter diversus; [5])?
**A.** 12.5 µg/mL

**Q.** And the “MIC against E. cloacae” value (Enterobacter cloacae; [6])?
**A.** 12.5 µg/mL

**Q.** What about the “MIC against P. aeruginosa” value (Pseudomonas aeruginosa; [7]) of the same substance?
**A.** 12.5 µg/mL

**Q.** What about the “MIC against S. marcescens” value (Serratia marcescens; [8]) of the same substance?
**A.** 12.5 µg/mL

**Q.** And the “MIC against K. pneumonia” value (Klebsiella pneumonia; [9])?
**A.** 50 µg/mL

**Q.** And the “MIC against A. hydrophila” value (Aeromonas hydrophila; [10])?
**A.** 50 µg/mL

**Q.** What about the MIC (E. coli DH5α) of the same substance?
**A.** 12.5 µg/mL

**Q.** And the “MIC against P. mirabilis” value (Proteus mirabilis; [11])?
**A.** 12.5 µg/mL

**Q.** What about the “MIC against E. coli BL21” value (E. coli BL21; [12]) of the same substance?
**A.** 50 µg/mL
